According to patent US10294202B2, “Pyrrolidinones as herbicides” (FMC Corporation, priority 2013, dated 2019):

How the values were obtained:
waterhemp (AMATA) = experiment: Test H preemergence mixture test (Colby); format: in vivo, Amaranthus rudis; conditions: for Plant response rating, Obsd., AMATA: 21 d after treatment, scale 0 to 100; for AMATA Obsd.: applied alone, 21 d, mean of three replicates, scale 0-100
corn (ZEAMD) = experiment: Test H preemergence mixture test (Colby); format: in vivo, Zea mays; conditions: for Plant response rating, Obsd., ZEAMD: 21 d after treatment, scale 0 to 100; for ZEAMD Obsd.: applied alone, 21 d, mean of three replicates, scale 0-100
[1] = test system: transplanted japonica rice (ORYSA); experiment: Test G paddy mixture test (Colby); format: in vivo, Oryza sativa; conditions: applied alone, 14 d; for ORYSA Obsd.: scale 0-100; for ORYSA Obsd. plant response rating (scale 0 to 100): flooded
Description: Seeds of small-flower umbrella […], Cyperus difformis) and […], Heteranthera limosa) were sown on the soil surface in two separate quadrants of 11-cm (4-inch) tubs filled with steam pasteurized Tama soil. Simultaneously, plantings of […], Echinochloa crus-galli) and transplanted japonica rice (ORYSA, Oryza sativa) were established in separate “plug” flats. […] Herbicide application timing was targeted at the 2.0 to 2.5 leaf stage and the plants were treated with test chemicals formulated in a non-phytotoxic solvent. Treated plants and controls were maintained in a greenhouse for 14 d, after which time all species were compared to controls and visually evaluated. Plant response ratings are summarized in Tables G1 through G12, and are based on a scale of 0 to 100 where 0 is no effect and 100 is complete control. A dash (-) response means no test result. Colby's Equation was used to determine the herbicidal effects expected from the mixtures. Colby's Equation (Colby, S. R. “Calculating Synergistic and Antagonistic Responses of Herbicide Combinations,” Weeds, 15(1), pp 20-22 (1967)) calculates the expected additive effect of herbicidal mixtures and for two active ingredients is of the form: Pa+b=Pa+Pb-(PaPb/100) where • Pa+b is the percentage effect of the mixture expected from additive contribution of the individual components: • Pa is the observed percentage effect of the first active ingredient at the same use rate as in the mixture, and • Pb is the observed percentage effect of the second active ingredient at the same use rate as in the mixture. In the following Tables, rates are shown in grams of active ingredient per […]); “Obsd.” is the observed effect. “Exp.” is the expected effect calculated from Colby's Equation.

Row | SMILES | Plant response rating, Obsd., AMATA (waterhemp (AMATA); Cmpd 80 alone 62 g a.i./ha) | Plant response rating, Obsd., AMATA (waterhemp (AMATA); Cmpd 80 alone 125 g a.i./ha) | AMATA Obsd. (waterhemp (AMATA); 62 g a.i./ha) | AMATA Obsd. (waterhemp (AMATA); 125 g a.i./ha) | Plant response rating, Obsd., ZEAMD (corn (ZEAMD); Cmpd 80 alone 62 g a.i./ha) | Plant response rating, Obsd., ZEAMD (corn (ZEAMD); Cmpd 80 alone 125 g a.i./ha) | ZEAMD Obsd. (corn (ZEAMD); 62 g a.i./ha) | ZEAMD Obsd. (corn (ZEAMD); 125 g a.i./ha) | ORYSA Obsd. ([1]; 125 g a.i./ha) | ORYSA Obsd. plant response rating (scale 0 to 100) ([1]; 125 g a.i./ha) | ORYSA Obsd. ([1]; 500 g a.i./ha) | ORYSA Obsd. plant response rating (scale 0 to 100) ([1]; 500 g a.i./ha)
1 | O=C1NCC(c2ccc(C(F)(F)F)cc2)C1C(=O)Nc1cccc(F)c1F (stereo not drawn) [Compound 80, N-(2,3-difluorophenyl)-2-oxo-4-[4-(trifluoromethyl)phenyl]-3-pyrrolidinecarboxamide] | 0 | 33 | 0 | 33 | 17 | 13 | 17 | 13 |  |  |  | 
2 | O=C1NC[C@H](c2cccc(C(F)(F)F)c2)[C@H]1C(=O)Nc1ccccc1F [Compound 204, (3R,4S)—N-(2-fluorophenyl)-2-oxo-4-[3-(trifluoromethyl)phenyl]-3-pyrrolidinecarboxamide] |  |  |  |  |  |  |  |  | 0 | 0 | 0 | 0
